Assay results reported in patent publication US20240279171A1, “METHODS FOR PREPARING CRYSTALLINE FORMS OF AMISULPRIDE” (SUNOVION PHARMACEUTICALS INC., priority 2021, published 2024).
Like-named read-outs stand apart in the source and are kept apart here. Each block holds one compound with its values, some of them ahead of it.

Legend:
[1] = Particle size distribution (Malvern Mastersizer), Example 16; assay type: physicochemical; conditions: for D10 (μm) / D50 (μm) / D90 (μm): crystalline amisulpride used in the tablet formulations, Mastersizer 2000; for PSD D10 (μm) / PSD D50 (μm) / PSD D90 (μm): cooling method Y (Example 4) vs cooling method X (Example 14)
Text: The particle size distribution (PSD) of crystalline products prepared by the foregoing examples were examined. FIG. 10 presents a plot of the cooling profile comparison between the cooling profile X, using the recrystallization procedure of, e.g., Example 14, with cooling profile Y, using the recrystallization procedure of, e.g., Example 4 (Step 2). Recrystallization using the cooling methods of Example 14 (cooling method X) provided Form A′ having a smaller particle size distribution (e.g., D50 and D90 values) than Form A′ prepared by the methods of Example 4 (cooling method Y), as shown in the table below.
PSD data was obtained using a Malvern Instruments Mastersizer particle size analyzer instrument.
The PSD of the crystalline amisulpride used in the various formulations are provided below. Amisulpride corresponding to “small PSD” can be prepared using the recrystallization and cooling methods of, e.g., Examples 14 and 15 (i.e., cooling profile X of FIG. 10). Amisulpride corresponding to “large PSD” can be prepared using the recrystallization methods of Examples 1 and 3 (i.e., cooling profile Y of FIG. 10). The PSDs were measured using a Mastersizer 2000 particle size analyzer instrument as described above.

[2] = Specific surface area (SSA), nitrogen gas, Quantachrome Quadrasorb SI; assay type: physicochemical; conditions: degassed 2 hours at 40° C. under vacuum
Experimental: Specific surface area (SSA) was measured using a Quantachrome Quadrasorb SI surface area analyzer performed at six-points over the relative pressure range of 0.1000 to 0.3500 in 0.0500 increments. Approximately 1.3 to 4.6 grams of sample were used per analysis and were weighed into bulb tubes. Samples in bulb tubes were degassed 2 hours at 40° C. under vacuum using the Quantachrome FlowVac degasser prior to surface area analysis. Nitrogen gas was used as the gas for the surface area analyses.

[3] = DVS, 25° C., 0 to 95% relative humidity; '738 patent; cited from earlier work
[4] = Dynamic vapor sorption (DVS) water sorption isotherm; assay type: physicochemical; conditions: 25° C.; for hygroscopicity: DVS
Text: In various embodiments, the hygroscopicity of a compound is characterized by dynamic vapor sorption (DVS). DVS is a gravimetric technique that measures how much of a solvent is absorbed by a sample by varying the vapor concentration surrounding the sample (e.g., relative humidity) and measuring the change in mass. DVS was used herein to generate water sorption isotherms, which represent the equilibrium amount of water vapor adsorbed and/or absorbed as a function of steady state relative water vapor pressure at a constant temperature.
Dynamic vapor sorption (DVS) isotherms were generated using a VTI SGA-100 Symmetric Vapor Sorption Analyzer. Analysis included pre-analysis drying at 25° C. with equilibrium criteria of 0.0000 wt % change in 5 minutes or a maximum of 180 minutes. Equilibrium criteria were the lesser of 0.01 wt % change in 5 minutes or 180 minutes at each RH step. […] Analysis was repeated for each sample in consecutive analyses (i.e., the sample was not removed from analyzer between analyses).
Tables 9A and 9B presents the DVS water sorption for crystalline enantiomeric amisulpride of Form A and Form A′ shown in FIG. 7A.

[5] = Particle size distribution by laser diffraction (Malvern Mastersizer 3000), Example 9; assay type: physicochemical; conditions: pre-sieved through 30 mesh screen, 0.2% Span 85 in hexanes
Experimental: Prior to analysis, the Form A′ crystals of (S)-amisulpride and Form A crystals of (R)-amisulpride were separately pre-sieved through a 30 mesh screen. All material was passed through screen during this pre-sieving step including aggregates.
Particle size distribution (PSD) measurements were measured by laser diffraction using a Malvern Instruments Mastersizer 3000 particle size analyzer instrument operated with the instrumentation and parameters described in Table 7.
The samples were first sieved through a 30 mesh screen prior to suspension. Approximately 400 mg of the sieved sample was weighed into a 50 ml beaker and 40 ml of a 0.2% v/v Span 85 (Sorbitan trioleate) in hexanes dispersant solution (e.g., a dispersant solution prepared by dissolving 2 mL of Span 85 (Sorbitan trioleate) in 1 L of hexanes) added. The overhead stirrer impeller was placed slightly above the bottom of the beaker (about 1 to 1.5 cm) and stirred at 500 rpm. After 1 minute, a disposable graduated transfer pipette was used to remove about 3 mL of the sample suspension from the center position of the beaker between impeller shaft and beaker side, and midway between top of vortex and beaker bottom. The entire contents of the pipette were added to the Malvern sample cell without inverting the pipette and the pipette rinsed twice with the circulating dispersant from the sample cell. The obscuration should be between 7% and 15%, if the obscuration was less than 7%, another aliquot of sample was added, making sure to transfer the entire aliquot taken up in the transfer pipette to the instrument, in order to avoid, e.g., potential artifacts due to settling of the suspension within the pipette. If the obscuration was greater than 15%, the instrument was drained and rinsed, and the measurement performed using a smaller sample suspension aliquot. After a sample cell with acceptable obscuration was obtained, the sample was circulated in the Mastersizer Hydro MV circulation system for two minutes and the sample dispersion measured.

[6] = listed as Form A′ (averages of lots prepared by the methods of Example 4)

D10 (μm) [1]: 5.1 μm
D50 (μm) [1]: 18.3 μm
D90 (μm) [1]: 80.1 μm
SMILES: CCN1CCC[C@H]1CNC(=O)c1cc(S(=O)(=O)CC)c(N)cc1OC [Form A′ small PSD]

PSD D10 (μm) [1]: 7.0 μm
PSD D50 (μm) [1]: 25.5 μm
PSD D90 (μm) [1]: 83.9 μm
SMILES: CCN1CCC[C@H]1CNC(=O)c1cc(S(=O)(=O)CC)c(N)cc1OC [Form A′ prepared by Example 14, (S)-4-Amino-N-[(1-ethyl-2-pyrrolidinyl)methyl]-5-(ethylsulfonyl)-2-methoxybenzamide]

D10 (μm) [1]: 12.8 μm
D50 (μm) [1]: 94.9 μm
D90 (μm) [1]: 441.4 μm
SMILES: CCN1CCC[C@@H]1CNC(=O)c1cc(S(=O)(=O)CC)c(N)cc1OC [Form A large PSD]

D10 (μm) [1]: 4.7 μm
D50 (μm) [1]: 18.2 μm
D90 (μm) [1]: 90.4 μm
SMILES: CCN1CCC[C@@H]1CNC(=O)c1cc(S(=O)(=O)CC)c(N)cc1OC [Form A small PSD]

SSA (m^2/g) [2]: 0.51 m^2/g
DVS Ads. at 95% RH [4]: 0.14
Change Mass (wt %) ([4]; Relative Humidity 1.39 %, elapse time 155.38 min): 0.000 wt %
Change Mass (wt %) ([4]; Relative Humidity 4.79 %, elapse time 327.39 min): −0.003 wt %
Change Mass (wt %) ([4]; Relative Humidity 10.00 %, elapse time 340.39 min): 0.003 wt %
Change Mass (wt %) ([4]; Relative Humidity 14.96 %, elapse time 359.89 min): 0.009 wt %
Change Mass (wt %) ([4]; Relative Humidity 19.81 %, elapse time 366.91 min): 0.015 wt %
Change Mass (wt %) ([4]; Relative Humidity 24.91 %, elapse time 374.93 min): 0.020 wt %
Change Mass (wt %) ([4]; Relative Humidity 30.02 %, elapse time 382.94 min): 0.026 wt %
Change Mass (wt %) ([4]; Relative Humidity 34.96 %, elapse time 390.96 min): 0.031 wt %
Change Mass (wt %) ([4]; Relative Humidity 39.94 %, elapse time 398.96 min): 0.038 wt %
Change Mass (wt %) ([4]; Relative Humidity 44.99 %, elapse time 406.96 min): 0.043 wt %
Change Mass (wt %) ([4]; Relative Humidity 49.99 %, elapse time 415.98 min): 0.049 wt %
Change Mass (wt %) ([4]; Relative Humidity 54.96 %, elapse time 424.99 min): 0.055 wt %
Change Mass (wt %) ([4]; Relative Humidity 59.96 %, elapse time 434.01 min): 0.061 wt %
Change Mass (wt %) ([4]; Relative Humidity 64.91 %, elapse time 443.03 min): 0.067 wt %
Change Mass (wt %) ([4]; Relative Humidity 69.86 %, elapse time 452.04 min): 0.073 wt %
Change Mass (wt %) ([4]; Relative Humidity 74.86 %, elapse time 461.04 min): 0.080 wt %
Change Mass (wt %) ([4]; Relative Humidity 79.80 %, elapse time 470.04 min): 0.087 wt %
Change Mass (wt %) ([4]; Relative Humidity 84.74 %, elapse time 479.04 min): 0.101 wt %
Change Mass (wt %) ([4]; Relative Humidity 89.58 %, elapse time 488.06 min): 0.113 wt %
Change Mass (wt %) ([4]; Relative Humidity 94.72 %, elapse time 497.06 min): 0.135 wt %
hygroscopicity [4]: substantially non-hygroscopic
Average PSD D10 (μm) [5]: 14.3 μm
Average PSD D50 (μm) [5]: 47.7 μm
Average PSD D90 (μm) [5]: 133.9 μm
SMILES: CCN1CCC[C@@H]1CNC(=O)c1cc(S(=O)(=O)CC)c(N)cc1OC [(R)-amisulpride Form A, (R)-4-Amino-N-[(1-ethyl-2-pyrrolidinyl)methyl]-5-(ethylsulfonyl)-2-methoxybenzamide]
hygroscopicity [3]: substantially non-hygroscopic

D10 (μm) [1]: 31.6 μm
D50 (μm) [1]: 93.1 μm
D90 (μm) [1]: 425.4 μm
SMILES: CCN1CCC[C@H]1CNC(=O)c1cc(S(=O)(=O)CC)c(N)cc1OC [Form A′ large PSD]

SSA (m^2/g) [2]: 0.65 m^2/g
DVS Ads. at 95% RH [4]: 0.09
Change Mass (wt %) ([4]; Relative Humidity 1.41 %, elapse time 180.73 min): 0.000 wt %
Change Mass (wt %) ([4]; Relative Humidity 5.38 %, elapse time 195.14 min): 0.003 wt %
Change Mass (wt %) ([4]; Relative Humidity 10.12 %, elapse time 207.64 min): 0.006 wt %
Change Mass (wt %) ([4]; Relative Humidity 15.00 %, elapse time 219.64 min): 0.011 wt %
Change Mass (wt %) ([4]; Relative Humidity 19.73 %, elapse time 227.64 min): 0.017 wt %
Change Mass (wt %) ([4]; Relative Humidity 24.91 %, elapse time 235.64 min): 0.023 wt %
Change Mass (wt %) ([4]; Relative Humidity 29.95 %, elapse time 243.64 min): 0.029 wt %
Change Mass (wt %) ([4]; Relative Humidity 34.98 %, elapse time 251.64 min): 0.033 wt %
Change Mass (wt %) ([4]; Relative Humidity 40.01 %, elapse time 260.64 min): 0.038 wt %
Change Mass (wt %) ([4]; Relative Humidity 44.94 %, elapse time 269.64 min): 0.042 wt %
Change Mass (wt %) ([4]; Relative Humidity 50.00 %, elapse time 278.64 min): 0.049 wt %
Change Mass (wt %) ([4]; Relative Humidity 55.02 %, elapse time 287.66 min): 0.053 wt %
Change Mass (wt %) ([4]; Relative Humidity 59.89 %, elapse time 296.66 min): 0.059 wt %
Change Mass (wt %) ([4]; Relative Humidity 64.92 %, elapse time 305.66 min): 0.066 wt %
Change Mass (wt %) ([4]; Relative Humidity 69.86 %, elapse time 314.66 min): 0.072 wt %
Change Mass (wt %) ([4]; Relative Humidity 74.97 %, elapse time 323.66 min): 0.076 wt %
Change Mass (wt %) ([4]; Relative Humidity 79.71 %, elapse time 332.66 min): 0.084 wt %
Change Mass (wt %) ([4]; Relative Humidity 84.74 %, elapse time 341.66 min): 0.094 wt %
Change Mass (wt %) ([4]; Relative Humidity 89.75 %, elapse time 350.66 min): 0.103 wt %
Change Mass (wt %) ([4]; Relative Humidity 94.55 %, elapse time 359.68 min): 0.114 wt %
hygroscopicity [4]: substantially non-hygroscopic
Average PSD D10 (μm) [5]: 9.5 μm
Average PSD D50 (μm) [5]: 32.3 μm
Average PSD D90 (μm) [5]: 116.9 μm
PSD D10 (μm) [1, 6]: 6.0 μm
PSD D50 (μm) [1, 6]: 29.1 μm
PSD D90 (μm) [1, 6]: 99.4 μm
SMILES: CCN1CCC[C@H]1CNC(=O)c1cc(S(=O)(=O)CC)c(N)cc1OC [(S)-amisulpride Form A′, (S)-4-Amino-N-[(1-ethyl-2-pyrrolidinyl)methyl]-5-(ethylsulfonyl)-2-methoxybenzamide]
hygroscopicity [3]: substantially non-hygroscopic
